This is an account of results in patent publication US9682931B2, “Aryloyl(oxy or amino)pentafluorosulfanylbenzene compound, pharmaceutically acceptable salt thereof, and prodrugs thereof” (UBE INDUSTRIES, LTD., priority 2013, dated 2017).

In assay [1] the test system is K562 human leukemia-derived cell lines. The assay is described as follows: K562 human leukemia cell-proliferation inhibition test. It counts as cell-based. Conditions: Homo sapiens, K562, 72 h, K562 cells, 72 hours, viable cells counted with trypan blue; read-out: IC50. How it is done: K562 Human Leukemia Cell-Proliferation Inhibition Test
A cell proliferation inhibition test using K562 cells was performed. The activity in the presence of a test substance was compared to the activity in the presence of green tea polyphenol (GTP). The materials used in the test are as follows.
Cells: K562 human leukemia-derived cell lines (DS Pharma Biomedical Co., Ltd.)
Control Substance: Green Tea Polyphenols, abbreviation: GTP (LKT Laboratories, Inc.)
Culture solution: 10% equine serum-supplemented RPMI1640 medium
A test substance and a control substance were used by dissolving each of them in DMSO. To a solution (0.99 mL) containing K562 cells in a cell concentration of 20,000 cells/mL, a test substance solution or a control substance solution (0.01 mL) was added and the cells were cultured. Seventy two hours later, a part of the cells was stained with trypan blue and viable cells were counted by a counting chamber.
In Table 2, “IC50” denotes the sample concentration inhibiting 50% of cell proliferation

For assay [2], the system named is TNF-α mRNA expression in RBL-2H3 cells. The assay is described as follows: Validation test in RBL-2H3 cell: TNF-α mRNA expression by antigen stimulation (Real-time PCR). Conditions: for TNF-α mRNA expression level: untreated control as 100. Type of assay: cell-based, Rat. As for the experimental part: 2. Validation Test in RBL-2H3 Cell
(Effect on Inflammation Mediator mRNA Expression by Antigen Stimulation)
After a cell model for an allergic reaction, RBL-2H3 cells, were stimulated by an antigen, mRNA expression level of a typical inflammation mediator, TNF-α, in the cell was measured by a Real-time PCR method. In this manner, a confirmation test for anti-inflammatory effect of Compound 3 was performed.
A test substance (Compound 3) (50 mg) was dissolved by adding 50 vol % ethanol (1 mL) to this to obtain an ethanol solution having a concentration of 50 mg/mL. The resultant solution was diluted with a medium. […] As a control (for comparison), Wortmannin (10 μM) was used. Herein, the concentrations were all indicated as the concentrations in cell supernatants.
RBL-2H3 cells were sensitized with anti-DNP-IgE antibody for 2 hours. A medium or a test solution was added and heat was applied at 37° C. for 10 minutes and then, a DNP-HSA solution was added. A reaction was carried out at 37° C. for 30 minutes. After completion of the reaction, total RNA was extracted from a cell fraction and cDNA was synthesized by use of Random Primer and Reverse Transcriptase. After a specific primer for a desired gene (ITNF-α,β-actin) was added, a Real-time PCR method was carried out in accordance with SYBR Green method using the resultant cDNA as a template to determine the expression level of mRNA. The expression ratio of the desired gene relative to a housekeeping gene, β-actin, was calculated. In this manner, a change in expression level relative to an untreated control was calculated.
Main test conditions and outline of the operation will be described below.
Cell: Rat basophil leukemic cell, RBL-2H3 [Human Sciences Foundation]
Antigen stimulation: Anti-DNP-IgE antibody, DNP labeled albumin
[Sigma-Aldrich Corporation]
Desired genes: IL-4, MCP-1, TNF-α, β-actin (housekeeping gene)
Measurement apparatus: StepOnePlus Real-Time PCR System [Life
Technologies Corporation] Measurement conditions: 95° C. (20 sec)→{95° C. (3 sec)→60° C. (30 sec)}×40 cycles
mRNA expression level (%) was obtained based on the expression level of the untreated control as 100.

For assay [3], the system named is caspase 3/7 in A549 cells (human lung cancer, adenocarcinoma). The assay is described as follows: Test of inducing apoptosis of A549 cells (caspase 3/7 activity). The note with it: 5 hours. Type of assay: cell-based. How it is done:
(Test of Inducing Apoptosis of A549 Cells (Human Lung Cancer, Adenocarcinoma))
To evaluate apoptosis induction of a sample (Compound 3), the activity of caspase 3/7 was measured.
1. Measurement Reagents, Equipment and Instruments
APO-ONE Homogeneous Caspase-3/7 Assay (G7790, Lot No. 314408; Promega)
Fluorescence plate reader (SpectraMax GEMINI EM; Molecular Devices)
Cells: A549 cells (obtained from the Research Resource Bank of the Human Sciences Foundation)
Medium: 10% FBS and 0.1 mmol/L Non-Essential Amino Acids Solution-containing MEM medium
A 1 mmol/L solution prepared with DMSO was prepared with a medium so as to have a final concentration (the final concentration of DMSO was set to be 0.1%).
A sample was weighed and a medium was added so as to obtain 500 μg/mL. While warming at 37° C., sonication was performed for 60 minutes to make dissolution. Filtration was performed by a 0.22 μm-filter. The 500 μg/mL solution was subjected to serial dilution in a common ratio of 10 with the medium to prepare 50, 5, 0.5, 0.05 and 0.005 μg/mL.
(1) (The day before test)
On a 96-well plate, A549 cells were seeded in a ratio of 10000 cells/100 μL/well. […]
(4) Reaction was performed at room temperature while blocking light. Two hours later, fluorescence was measured (excitation wavelength: 499 nm, fluorescence wavelength: 521 nm)

≈ marks a conversion by molar mass, not a printed value.

One may read the IC50 as the point on the concentration scale where inhibition reaches its midpoint. On to `O=C(Oc1ccc(S(F)(F)(F)(F)F)cc1)c1cc(O)c(O)c(O)c1` [Compound 7, 4-(3,4,5-trihydroxybenzoyloxy)pentafluorosulfanylbenzene], for which the IC50 in assay [1] worked out at 1.9 µg/mL (≈ 5.1 µM).
`O=C(Nc1ccc(S(F)(F)(F)(F)F)cc1)c1cc(O)c(O)c(O)c1` [Compound 3, 4-(3,4,5-trihydroxybenzoylamino)pentafluorosulfanylbenzene]: the IC50 in assay [1] was found to be 0.81 µg/mL (≈ 2.18 µM). The “suppression of TNF-α mRNA expression” value in assay [2] (RBL-2H3 cells, antigen stimulation) was “Suppression of the mRNA expression TNF-α, one of inflammatory mediators, was confirmed”. The “TNF-α mRNA expression level” value in assay [2] (sample 1 μg/mL) was 87%; in assay [2] (sample 10 μg/mL), 69%. Further, the “caspase 3/7 activity” value in assay [3] (0.005 μg/mL to 5 μg/mL) is listed as “high activity was observed”; in assay [3] (all concentrations 0.005 μg/mL to 500 μg/mL), “tends to enhance caspase 3/7 activity”.
